Test results as given in patent publication US7608615B2, “Pyrrolo[2,1-C][1,4]benzodiazepine hybrids and a process for the preparation thereof” (Council of Scientific & Industrial Research, priority 2006, dated 2009).

How the values were obtained:
Assay type in all cases: cell-based, human
[1] = tested on: Zr-75-1; assay: in vitro cytotoxicity, Zr-75-1 breast cancer cells; details: for percentage cell growth (Activity status in terms of IC50 values) Zr-75-1 Breast: 48 h continuous drug exposure, percent of cell growth relative to untreated control cells; for suppressing Zr-25-1 cell growth: suppression of cell growth, 48 h exposure
Method: (§1) Cytotoxicity: The compounds 7-methoxy-8-[3-(6-chloro-2-oxo-4-phenyl-1,2-dihydro-1-quinazolinyl)propoxy]-(11aS)-1,2,3,11a-tetrahydro-5H-pyrrolo[2,1-c][1,4]benzodiazepine-5-one and 7-methoxy-8-[5-(6-chloro-2-oxo-4-phenyl-1,2-dihydro-1-quinazolinyl)pentyloxy]-(11aS)-1,2,3,11a-tetrahydro-5H-pyrrolo [2,1-c][1,4]benzodiazepine-5-one were evaluated for in vitro anticancer activity against nine human tumour cells derived from six cancer types (colon, prostate, oral, lung, cervix and breast cancer) as shown in (Table 1).
(§2) Compounds 5d and 5f have been evaluated for their in vitro cytotoxicity in selected human cancer cell lines of colon (Colo205), lung (Hop-62), cervix (SiHa), prostate (DU145, PC3), oral (DWD, HT1080), and breast (MCF7, Zr-75-1) origin. A protocol of 48 h continuous drug exposure and an […] protein assay has been used to estimate cell viability or growth. The results are expressed as percent of cell growth determined relative to that of untreated control cells (Table 1).

[2] = tested on: HT1080; assay: in vitro cytotoxicity, HT1080 oral cancer cells; details: for percentage cell growth (Activity status in terms of IC50 values) HT1080 Oral: 48 h continuous drug exposure, percent of cell growth relative to untreated control cells; for suppress HT1080 cell growth: suppression of cell growth, 48 h exposure
Method: as §1, §2

[3] = tested on: Hop62; assay: in vitro cytotoxicity, Hop62 lung cancer cells; details: for percentage cell growth (Activity status in terms of IC50 values) Hop62 Lung: 48 h continuous drug exposure, percent of cell growth relative to untreated control cells; for suppress Hop62 cell growth: suppression of cell growth, 48 h exposure
Method: as §1, §2

[4] = tested on: MCF7; assay: in vitro cytotoxicity, MCF7 breast cancer cells; details: for percentage cell growth (Activity status in terms of IC50 values) MCF7 Breast: 48 h continuous drug exposure, percent of cell growth relative to untreated control cells; for suppress MCF7 cell growth: suppression of cell growth, 48 h exposure
Method: as §1, §2

[5] = tested on: SiHa; assay: in vitro cytotoxicity, SiHa cervix cancer cells; details: for percentage cell growth (Activity status in terms of IC50 values) SiHa Cervix: 48 h continuous drug exposure, percent of cell growth relative to untreated control cells; for suppressing the SiHa cell growth: suppression of cell growth, 48 h exposure
Method: as §1, §2

[6] = tested on: PC3; assay: in vitro cytotoxicity, PC3 prostate cancer cells; details: for percentage cell growth (Activity status in terms of IC50 values) PC3 Prostate: 48 h continuous drug exposure, percent of cell growth relative to untreated control cells; for suppress PC3 cell growth: suppression of cell growth, 48 h exposure
Method: as §1, §2

[7] = tested on: DU145; assay: in vitro cytotoxicity, DU145 prostate cancer cells; details: for percentage cell growth (Activity status in terms of IC50 values) DU145 Prostate: 48 h continuous drug exposure, percent of cell growth relative to untreated control cells; for suppress DU145 cell growth: suppression of cell growth, 48 h exposure
Method: as §1, §2

[8] = tested on: Colo205; assay: in vitro cytotoxicity, Colo205 colon cancer cells; details: for percentage cell growth (Activity status in terms of IC50 values) Colo205 Colon: 48 h continuous drug exposure, percent of cell growth relative to untreated control cells; for suppress Colo205 cell growth: suppression of cell growth, 48 h exposure
Method: as §1, §2

[9] = tested on: DWD; assay: in vitro cytotoxicity, DWD oral cancer cells; details: for percentage cell growth (Activity status in terms of IC50 values) DWD Oral: 48 h continuous drug exposure, percent of cell growth relative to untreated control cells; for suppress DWD cell growth: suppression of cell growth, 48 h exposure
Method: as §1, §2

SMILES | percentage cell growth (Activity status in terms of IC50 values) Zr-75-1 Breast [1] | percentage cell growth (Activity status in terms of IC50 values) HT1080 Oral [2] | percentage cell growth (Activity status in terms of IC50 values) Hop62 Lung [3] | percentage cell growth (Activity status in terms of IC50 values) MCF7 Breast [4] | percentage cell growth (Activity status in terms of IC50 values) SiHa Cervix [5] | percentage cell growth (Activity status in terms of IC50 values) PC3 Prostate [6] | percentage cell growth (Activity status in terms of IC50 values) DU145 Prostate [7] | percentage cell growth (Activity status in terms of IC50 values) Colo205 Colon [8] | percentage cell growth (Activity status in terms of IC50 values) DWD Oral [9] | suppressing Zr-25-1 cell growth [1] | suppress HT1080 cell growth [2] | suppress Hop62 cell growth [3] | suppress MCF7 cell growth [4] | suppressing the SiHa cell growth [5] | suppress PC3 cell growth [6] | suppress DU145 cell growth [7] | suppress Colo205 cell growth [8] | suppress DWD cell growth [9]
COc1cccc2c1C(=O)c1c(O)c3c(c(O)c1C2=O)C[C@@](O)(C(=O)CO)C[C@@H]3O[C@H]1C[C@H](N)[C@H](O)[C@H](C)O1 [ADR, adriamycin, reference compound] | 5% | 4% | 5% | 5% | 5% | 5% | 6% | 5% | 2% |  |  |  |  |  |  |  |  | 
COc1cc2c(cc1OCCCn1c(=O)nc(-c3ccccc3)c3cc(Cl)ccc31)N=C[C@@H]1CCCN1C2=O [Compound 5d, 7-Methoxy-8-[3-(6-chloro-2-oxo-4-phenyl-1,2-dihydro-1-quinazolinyl)propoxy]-(11aS)-1,2,3,11a-tetrahydro-5H-pyrrolo[2,1-c][1,4]benzodiazepine-5-one] | 8% | 9% | 6% | 12% | 16% | 11% | 8% | 8% | 5% | 92% | 91% | 94% | 88% | 84% | 89% | 92% | 92% | 95%
COc1cc2c(cc1OCCCCCn1c(=O)nc(-c3ccccc3)c3cc(Cl)ccc31)N=C[C@@H]1CCCN1C2=O [Compound 5f, 7-Methoxy-8-[5-(6-chloro-2-oxo-4-phenyl-1,2-dihydro-1-quinazolinyl)pentyloxy]-(11aS)-1,2,3,11a-tetrahydro-5H-pyrrolo[2,1-c][1,4]benzodiazepine-5-one] | 8% | 8% | 5% | 8% | 16% | 7% | 10% | 15% | 5% | 92% | 92% | 95% | 92% | 84% | 93% | 90% | 85% | 95%
